Measurements published in US20240279215A1 (Cytokinetics, Incorporated, priority 2022, published 2024).
pEC50: −log10 of the molar value.

What follows are compounds tested against human NAMPT (Homo sapiens (Human), UniProt P43490) (assay: NMN fluorescence biochemical assay (human recombinant NAMPT enzyme assay)).
Summary of the method: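 NMN formed was detected by fluorescence (Ex/Em 355/460 nm) after acetophenone, KOH and formic acid derivatization. The cell-free reaction ran 60 min at ambient temperature with 6 nM human NAMPT, 150 μM nicotinamide, 20 μM PRPP, 2.5 mM ATP, pH 7.2 HEPES, and compound dose responses.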

human NAMPT, sequence (P43490 whole entry): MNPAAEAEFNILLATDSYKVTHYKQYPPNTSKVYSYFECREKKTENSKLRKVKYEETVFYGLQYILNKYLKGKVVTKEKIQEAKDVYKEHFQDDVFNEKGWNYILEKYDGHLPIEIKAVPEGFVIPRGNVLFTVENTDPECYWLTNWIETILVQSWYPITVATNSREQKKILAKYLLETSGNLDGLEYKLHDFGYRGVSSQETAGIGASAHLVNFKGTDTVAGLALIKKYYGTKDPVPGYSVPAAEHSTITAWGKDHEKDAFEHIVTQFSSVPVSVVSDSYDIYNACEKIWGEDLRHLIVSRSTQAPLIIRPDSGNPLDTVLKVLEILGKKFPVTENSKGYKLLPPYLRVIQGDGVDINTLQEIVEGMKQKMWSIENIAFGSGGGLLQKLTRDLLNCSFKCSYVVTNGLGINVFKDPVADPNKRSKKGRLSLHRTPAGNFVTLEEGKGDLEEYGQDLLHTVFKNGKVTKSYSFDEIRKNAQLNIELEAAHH

Row | Structure (SMILES) | AC1.4 Human [µM] | pEC50
1 | O=C(Nc1ccc(CC(=O)N2CCC[C@H](O)C2)cc1)OCc1ccc(Cl)cc1 [Compound 171, 4-chlorobenzyl (S)-(4-(2-(3-hydroxypiperidin-1-yl)-2-oxoethyl)phenyl)carbamate] | 1.43 | 5.01
2 | O=C(Nc1ccc(Cc2cccnc2)cc1)OCc1ccc(Cl)cc1 [Compound 172, 4-chlorobenzyl (4-(pyridin-3-ylmethyl)phenyl)carbamate] | 1.43 | 5.45
3 | Cc1cc(C(=O)NCc2ccc(NC(=O)OCc3ccc(Cl)cc3)cc2)ccn1 [Compound 173, (4-chlorophenyl)methyl N-(4-{[(2-methylpyridin-4-yl)formamido]methyl}phenyl)carbamate] | 1.46 | 5.36
4 | CCc1ncoc1C(=O)N(C)Cc1ccc(NC(=O)OCc2ccc(Cl)cc2)cc1 [Compound 176, (4-chlorophenyl)methyl N-(4-{[1-(4-ethyl-1,3-oxazol-5-yl)-N-methylformamido]methyl}phenyl)carbamate] | 1.47 | 5.34
5 | CN1CCN(C(=O)Cc2ccc(NC(=O)OCc3ccc(Cl)cc3)cc2)C2CC21 (stereo not shown) [Compound 178, 4-chlorobenzyl (4-(2-(5-methyl-2,5-diazabicyclo[4.1.0]heptan-2-yl)-2-oxoethyl)phenyl)carbamate] | 1.50 | 4.83
6 | CC1(C(=O)NCc2ccc(NC(=O)OCc3ccc(Cl)cc3)cc2)COC1 [Compound 179, (4-chlorophenyl)methyl N-(4-{[(3-methyloxetan-3-yl)formamido]methyl}phenyl)carbamate] | 1.50 | 4.65
7 | CC1(C)CCN1C(=O)Cc1ccc(NC(=O)OCc2ccc(Cl)cc2)cc1 [Compound 183, (4-chlorophenyl)methyl N-{4-[2-(2,2-dimethylazetidin-1-yl)-2-oxoethyl]phenyl}carbamate] | 1.57 | 4.82
8 | COC1CCN(C(=O)NCc2ccc(NC(=O)OCc3ccc(Cl)cc3)cc2)CC1 [Compound 184, (4-chlorophenyl)methyl N-{4-[(4-methoxypiperidine-1-carbonylamino)methyl]phenyl}carbamate] | 1.58 | 4.83
9 | O=C(Nc1ccc(CNC(=O)c2ccc(C(F)F)nc2)cc1)OCc1ccc(Cl)cc1 [Compound 185, (4-chlorophenyl)methyl N-[4-({[6-(difluoromethyl)pyridin-3-yl]formamido}methyl)phenyl]carbamate] | 1.59 | 5.69
10 | Cc1nn(C)c(C(=O)N(C)Cc2ccc(NC(=O)OCc3ccc(Cl)cc3)cc2)c1F [Compound 188, (4-chlorophenyl)methyl N-(4-{[1-(4-fluoro-2,5-dimethylpyrazol-3-yl)-N-methylformamido]methyl}phenyl)carbamate] | 1.62 | 5.16
11 | C[C@H](NC(=O)C1(C)COC1)c1ccc(NC(=O)OCc2ccc(Cl)cc2)cc1 [Compound 189, 4-chlorobenzyl (S)-(4-(1-(3-methyloxetane-3-carboxamido)ethyl)phenyl)carbamate] | 1.64 | 4.73
12 | Cc1noc(C(=O)N(C)Cc2ccc(NC(=O)OCc3ccc(Cl)cc3)cc2)c1C [Compound 190, (4-chlorophenyl)methyl N-(4-{[1-(3,4-dimethyl-1,2-oxazol-5-yl)-N-methylformamido]methyl}phenyl)carbamate] | 1.64 | 5.05
13 | Cc1ncccc1C(=O)NCc1ccc(NC(=O)OCc2ccc(Cl)cc2)cc1 [Compound 192, (4-chlorophenyl)methyl N-(4-{[(2-methylpyridin-3-yl)formamido]methyl}phenyl)carbamate] | 1.70 | 5.19
14 | O=C(Nc1ccc(CC(=O)N2CCN(C3COC3)CC2)cc1)OCc1ccc(Cl)cc1 [Compound 194, (4-chlorophenyl)methyl N-(4-{2-[4-(oxetan-3-yl)piperazin-1-yl]-2-oxoethyl}phenyl)carbamate] | 1.73 | 4.57
15 | Cc1n[nH]cc1C(=O)N(C)Cc1ccc(NC(=O)OCc2ccc(Cl)cc2)cc1 [Compound 197, (4-chlorophenyl)methyl N-(4-{[N-methyl-1-(3-methyl-1H-pyrazol-4-yl)formamido]methyl}phenyl)carbamate] | 1.75 | 4.93
16 | O=C(Nc1ccc(C2CCN(C3COC3)CC2)cc1)OCc1ccc(Cl)cc1 [Compound 198, (4-chlorophenyl)methyl N-{4-[1-(oxetan-3-yl)piperidin-4-yl]phenyl}carbamate] | 1.76 | 5.07
17 | Cc1cc(C(=O)N[C@@H](C)c2ccc(NC(=O)OCc3ccc(Cl)cc3)cc2)on1 [Compound 200, 4-chlorobenzyl (S)-(4-(1-(3-methylisoxazole-5-carboxamido)ethyl)phenyl)carbamate] | 1.78 | 5.67
18 | O=C(Nc1ccc(CC(=O)N2CCC[C@H]2CO)cc1)OCc1ccc(Cl)cc1 [Compound 202, (4-chlorophenyl)methyl N-(4-{2-[(2S)-2-(hydroxymethyl)pyrrolidin-1-yl]-2-oxoethyl}phenyl)carbamate] | 1.82 | 4.61
19 | Cc1nn(C)c(C(=O)NCc2ccc(NC(=O)OCc3ccc(Cl)cc3)cc2)c1F [Compound 203, (4-chlorophenyl)methyl N-(4-{[(4-fluoro-2,5-dimethylpyrazol-3-yl)formamido]methyl}phenyl)carbamate] | 1.82 | 5.15
20 | Cn1nccc1C(=O)NCc1ccc(NC(=O)OCc2ccc(Cl)cc2)cc1 [Compound 205, (4-chlorophenyl)methyl N-(4-{[(2-methylpyrazol-3-yl)formamido]methyl}phenyl)carbamate] | 1.84 | 5.00

More lines, in order of rising pEC50, values ahead:

Row | AC1.4 Human [µM] | pEC50 | Structure (SMILES)
21 | 1.49 | 4.42 | CC(C)(O)CN1CCN(Cc2ccc(NC(=O)OCc3ccc(Cl)cc3)cc2)CC1 [Compound 177, 4-chlorobenzyl (4-((4-(2-hydroxy-2-methylpropyl)piperazin-1-yl)methyl)phenyl)carbamate]
22 | 1.47 | 4.55 | COc1ccc(COC(=O)Nc2ccc(CN3CCOCC3=O)cc2)cc1 [Compound 174, (4-methoxyphenyl)methyl N-{4-[(3-oxomorpholin-4-yl)methyl]phenyl}carbamate]
23 | 1.78 | 4.58 | O=C(Nc1ccc(Cc2ccncc2)cc1)OCc1cncs1 [Compound 201, thiazol-5-ylmethyl (4-(pyridin-4-ylmethyl)phenyl)carbamate]
24 | 1.69 | 4.66 | CC(=O)N1CCN(Cc2ccc(NC(=O)OCc3ccc(Cl)cc3)cc2)CC1 [Compound 191, (4-chlorophenyl)methyl N-{4-[(4-acetylpiperazin-1-yl)methyl]phenyl}carbamate]
25 | 1.83 | 4.67 | CN1CC(=O)NC[C@@H]1c1ccc(NC(=O)OCc2ccc(C(F)F)cc2)cc1 [Compound 204, 4-(difluoromethyl)benzyl (S)-(4-(1-methyl-5-oxopiperazin-2-yl)phenyl)carbamate]
26 | 1.53 | 4.81 | CC(C)n1nccc1C(=O)N[C@@H](C)c1ccc(NC(=O)OCc2ccc(Cl)cc2)cc1 [Compound 181, (4-chlorophenyl)methyl N-{4-[(1S)-1-[(2-isopropylpyrazol-3-yl)formamido]ethyl]phenyl}carbamate]
27 | 1.52 | 4.82 | O=C(Nc1ccc(CN2CC3CC3C2=O)cc1)OCc1ccc(Cl)cc1 (stereo not shown) [Compound 180, (4-chlorophenyl)methyl N-[4-({2-oxo-3-azabicyclo[3.1.0]hexan-3-yl}methyl)phenyl]carbamate]
28 | 1.71 | 4.90 | Cn1cc(C(=O)NCc2ccc(NC(=O)OCc3ccc(Cl)cc3)cc2)cn1 [Compound 193, (4-chlorophenyl)methyl N-(4-{[(1-methylpyrazol-4-yl)formamido]methyl}phenyl)carbamate]
29 | 1.62 | 4.95 | O=C(Nc1ccc(CNC(=O)c2cnco2)cc1)OCc1ccc(Cl)cc1 [Compound 187, (4-chlorophenyl)methyl N-{4-[(1,3-oxazol-5-ylformamido)methyl]phenyl}carbamate]
30 | 1.54 | 4.96 | Cc1nc(C)c(C(=O)N(C)Cc2ccc(NC(=O)OCc3ccc(Cl)cc3)cc2)o1 [Compound 182, (4-chlorophenyl)methyl N-(4-{[1-(2,4-dimethyl-1,3-oxazol-5-yl)-N-methylformamido]methyl}phenyl)carbamate]
31 | 1.47 | 5.05 | O=C(Nc1ccc(CNC(=O)c2cncnc2)cc1)OCc1ccc(Cl)cc1 [Compound 175, (4-chlorophenyl)methyl N-{4-[(pyrimidin-5-ylformamido)methyl]phenyl}carbamate]
32 | 1.73 | 5.09 | COc1cc(C(=O)NCc2ccc(NC(=O)OCc3ccc(Cl)cc3)cc2)cnc1C [Compound 195, (4-chlorophenyl)methyl N-(4-{[(5-methoxy-6-methylpyridin-3-yl)formamido]methyl}phenyl)carbamate]
33 | 1.75 | 5.14 | O=C(Nc1ccc(Cc2ccncc2)cc1)OCc1ccc(C(F)F)cc1 [Compound 196, 4-(difluoromethyl)benzyl (4-(pyridin-4-ylmethyl)phenyl)carbamate]
34 | 1.77 | 5.28 | Cc1ccc(NC(=O)Cc2ccc(NC(=O)OCc3ccc(Cl)cc3)cc2)cn1 [Compound 199, (4-chlorophenyl)methyl N-(4-{[(6-methylpyridin-3-yl)carbamoyl]methyl}phenyl)carbamate]
35 | 1.61 | 5.47 | Cc1ccc(Cc2ccc(NC(=O)OCc3ccncc3)cc2)cn1 [Compound 186, pyridin-4-ylmethyl (4-((6-methylpyridin-3-yl)methyl)phenyl)carbamate]
